Test results as given in patent publication US11490856B2, “Method and a system for analyzing neuropharmacology of a drug” (City University of Hong Kong, priority 2018, dated 2022).
Read-outs that look alike come from different tables or passages of the source.

What was measured:
PTZ-larvae = assay: Calcium fluctuation traces and T-score BAM of PTZ-treated larval brains; type: in vivo, zebrafish; settings: 5 mM PTZ; 4 hour treatment at 10 μM
From the text: With reference to FIGS. 39C to 39E, Such pharmacological effects could also be observed in the diametrically opposed BAMS from zebrafish treated in the same manner. NNC-711 is thought to principally act through the inhibition of GABA uptake from the synaptic cleft and glia via inhibition of SLC6A1 (solute carrier family 6 member 1; (GAT1)) leading to increased GABA-ergic neurotransmission.

[1] = test system: pentylenetetrazole (PTZ) induced zebrafish seizure model; settings: for concentration at which seizures were reduced: 5 mM PTZ after 4 hour pre-incubation; for seizure count over 15 minutes after PTZ: 5 mM PTZ after 4 hour pre-incubation with compound, n=12, vs DMSO control
Method: In these experiments, with reference to FIG. 38, following a four-hour drug incubation period, zebrafish larvae were pre-monitored for normal movements/swimming behavior for 17 minutes. […] At the 17-minute mark, the larvae were treated with PTZ to a final concentration of 5 mM, and the number of seizures per larva and the average number of seizures at each concentration were quantified for 15 minutes following PTZ exposure.
(§1) The experimental protocol uses a 96-well plate, with one zebrafish larva (5 days post-fertilization) in 90 μL of fish water in each well. 10 μL of a 10× solution of compound in 10% DMSO was added to each well to achieve the final concentration shown in the data, and for a final concentration of 1% DMSO. […] The larvae were pre-treated with compound for four hours, followed by a two minute dark stimulation to ensure fish were not sedated, followed by a 15 minutes period of observation for deviation from the anticipated normal movement/swimming behavior. […] After a 15 minute observation period, the larvae were treated with PTZ to a final concentration of 5 mM, and the number of seizures per larva at each concentration quantified for 15 minutes following PTZ treatment. The DanioVision platform (Noldus) was used to perform the animal behavioral recoding and analysis.

animal models = settings: previously reported; cited from earlier work
[2] = test system: rat models of induced epilepsy; settings: literature; cited from earlier work
zebrafish brain = assay: HT-BAMing whole-brain activity mapping (T-score BAM) by calcium imaging of awake larvae; type: in vivo; settings: for change in brain neural activity (T-score BAM pattern): 10 μM dose, 15-minute perfusion, five larvae per compound
Method: The transgenic zebrafish line elav13:GCaMP5G may be maintained in aquaria under standard laboratory conditions (at 28° C. under a cycle of 14 h light, 10 h dark). Larvae of 6-8 dpf were used in the HT-BAMing experiments.
For example, the imaging process may be performed on a fully automated inverted fluorescent microscope (Olympus IX81) equipped with a cooled sCMOS camera (Neo, ANDOR) with a 10× (NA, 0.4) objective. Micro-manager 1.4 may be installed to control the microscope. For high-resolution, confocal imaging and Leica SP8 microscope with a resonant scanner may be used.
Furthermore, a drug perfusion time may be set in which the two syringes may contain different fluid or solutions such that the changes induced by the drug may be recorded. With reference to FIGS. 8 and 9, to generate the functional BAM of a larva in response to a 15-minute period of chemical perfusion, or “treatment”, each larva was imaged over a 10-minute period before and after treatment.
In the experiments performed by the inventors, all drugs or compounds were dissolved in DMSO as a vehicle as ˜10 mM stock solutions. Treatment of the larvae was performed simply by switching the perfusion solution after immobilizing larvae in the microfluidic chip as shown in FIG. 8. Final concentrations of compounds tested in the primary screen were […].
In one example embodiment, the transformation module 106 is arrange to construct the brain activity maps 110 based on counting neural spikes representing changes of brain activity as detected on the images obtained. With reference to FIGS. 1 and 9, readings from multiple focal planes along the Z-axis (ventral direction) were acquired, and accumulated spike counts were derived from the calcium fluctuations of each Z-plane with a lateral resolution of 15.21 μm^2. The difference in spike-counts between the post- and pre-treatment periods was calculated and projected (by summing up along the Z-axis) to a two-dimensional surface to construct a BAM that reflects changes in brain activity and physiology of an individual larva in response to treatment.
With reference also to FIG. 10, a heat map may be used to intuitively display the activation level of the brain. To map brain activity, every collected frame from calcium imaging may be first meshed into small ROIs, each with a size of 15.21 μm^2. The time series of fluorescence signal in each ROI may then be filtered by a high pass filter to remove the interference from illumination fluctuations. The resulting trace may be used to calculate and visualize the spiking activities. For spike counting, a threshold may be applied to detect spikes from neural activity.
In the experiment, for each compound, the spike count data from five independent zebrafish larvae over a 10-minute period before and a 15-minute period after compound treatment. Before comparison across different samples, all the images were first resized and aligned to a uniform zebrafish brain template with the following process: for each raw image, the dark background was first removed to extract the fluorescent brain region, which was then mapped to the standard template via specific transformative adjustments (e.g. rotation, translation) using the brain center-line as a registration landmark and such that the symmetry with respect to the center-line was maximized in the resulted image. Lastly, the fish eye region was further removed by taking the regions within the template for downstream analysis.
A brain activity map (BAM) A=[aij] was then derived by taking the change (increase or decrease) of spike counts in each ROI before (t0) and after chemical treatment (t1), and summed across multiple layers along the Z-axis:
For each compound, BAMs from five individual larvae were acquired following treatment with a 10 μM dose.

[3] = Solubility in water noted when preparing behavioral test concentrations; type: physicochemical
Method: as §1

dopamine levels = settings: mice, literature; cited from earlier work
[4] = test system: kainic-acid induced seizure model; settings: mice, shown previously; cited from earlier work

In the case of O=C(O)C1=CCCN(CCON=C(c2ccccc2)c2ccccc2)C1 [NNC-711, NNC 711], the “seizure activity in larval brain (calcium fluctuation, T-score BAM)” value (PTZ-larvae) is given as “reduction of seizure activity”, the “concentration at which seizures were reduced” value [1] is given as 25 µM and the “anti-epileptic activity in animal models” value (animal models) is given as “anti-epileptic activity”. For the same compound, the “anticonvulsant efficacy in rat models of induced epilepsy” value [2] was “anticonvulsant efficacy”.

For N#Cc1ccccc1-c1cc(-c2ccccn2)cn(-c2ccccc2)c1=O [perampanel, Perampanel], the “change in brain neural activity (T-score BAM pattern)” value (“change in brain neural activity” below) (zebrafish brain) was “inhibition of activity across almost the entire brain”.

For COc1cccc([C@H](O)C2CCN(CCc3ccc(F)cc3)CC2)c1OC [volinanserin], the solubility [3] was “highly insoluble in water”, the “seizure count over 15 minutes after PTZ” value [1] was “reduced seizures” and the “seizure count over 15 minutes after PTZ” value ([1]; listed as Volinanerin) was “hit compounds”.

With O=c1cc(-c2ccccc2)oc2c(O)c(O)ccc12 [7,8-dihydroxyflavone] the solubility [3] was “highly insoluble in water”.

For COc1ccc2cc3[n+](cc2c1OC)CCc1cc2c(cc1-3)OCO2 [berberine, Berberine], the “effect on dopamine levels” value (dopamine levels) is given as “increase dopamine levels”.

In the case of Cl.O=C(O)C1CCCN(CCC=C(c2ccccc2)c2ccccc2)C1 (centres unmarked) [SKF89976A, SKF 89976A], the “anti-epileptic activity in animal models” value (animal models) is listed as “anti-epileptic activity”.

In the case of CC[C@@H](C(N)=O)N1CCCC1=O [levetiracetam, Levetiracetam], the “change in brain neural activity” value (zebrafish brain) is reported as “inhibition of activity across almost the entire brain”.

In the case of CC1=NN=C(c2ccc(N)cc2)c2cc3c(cc2C1)OCO3 [GYKI-52466], the “seizure count over 15 minutes after PTZ” value [1] is listed as “confirmed”, the “seizure count over 15 minutes after PTZ” value ([1]; listed as GYKI 54266) is listed as “hit compounds” and the “anticonvulsant activity in kainic-acid induced seizure model” value [4] is listed as “anticonvulsant activity”.

With NC(=O)N1c2ccccc2C=Cc2ccccc21 [carbamazepine, Carbamazepine] the “change in brain neural activity” value (zebrafish brain) was “inhibition of activity across almost the entire brain”.

In the case of COc1ccc(CNC(=O)Nc2ncc([N+](=O)[O-])s2)cc1 [AR-A014418], the solubility ([3]; water / fish water, 1% DMSO) is reported as “highly insoluble in water”.

For Nc1nnc(-c2cccc(Cl)c2Cl)c(N)n1 [lamotrigine, Lamotrigine], the “change in brain neural activity” value (zebrafish brain) was “inhibition of activity across almost the entire brain”.

In the case of CNC(=O)[C@@H](Cc1ccccc1)N(C)C(=O)[C@@H](Cc1ccc2ccccc2c1)N(C)C(=O)/C=C/CC(C)(C)N [Tabimorelin], the “seizure count over 15 minutes after PTZ” value [1] is reported as “hit compounds”.

With CCC1(C)CC(=O)NC1=O (centres unmarked) [ethosuximide, Ethosuximide] the “change in brain neural activity” value (zebrafish brain) was “inhibition of activity across almost the entire brain”.

In the case of Cc1ncc(CSSCc2cnc(C)c(O)c2CO)c(CO)c1O [Pyrithioxine], the “change in brain neural activity” value (zebrafish brain) is reported as “increased activity brain-wide” and the “change of action potential firing rate in selected neuronal cells from a zebrafish brain” value (zebrafish brain; FIG. 9, after drug treatment) is reported as “excitation”.

In the case of CN1CCc2c(c3ccccc3n2Cc2ccc(C(=O)NO)cc2)C1 [Tubastatin A], the “concentration at which seizures were reduced” value [1] is reported as 500 µM, the “seizure count over 15 minutes after PTZ” value [1] is reported as “hit compounds” and the “seizure count over 15 minutes after PTZ” value ([1]; listed as Tubastatin-A) is reported as “reduced seizure count”.

With NC(=O)CCC/N=C(\c1ccc(Cl)cc1)c1cc(F)ccc1O [progabide, Progabide] the “change in brain neural activity” value (zebrafish brain) was “inhibition of activity across almost the entire brain”.

For NC(=O)N1c2ccccc2CC(=O)c2ccccc21 [oxcarbazepine], the “change in brain neural activity” value (zebrafish brain) was “inhibition of activity across almost the entire brain”.

For Oc1noc2c1CCNC2 [Gaboxadol], the “anti-epileptic activity in animal models” value (animal models) is given as “anti-epileptic activity”.

With COc1ccc(/C=C/c2cc(OC)cc(=O)o2)cc1 [Yangonin] the solubility [3] was “highly insoluble in water” and the “seizure count over 15 minutes after PTZ” value [1] was “hit compounds”.

In the case of OCCCCC#Cc1cncc(OC[C@@H]2CCN2)c1 [Sazetidine], the “seizure count over 15 minutes after PTZ” value [1] is reported as “hit compounds”.

For OC(CNc1ccccc1)Cn1c2ccc(Br)cc2c2cc(Br)ccc21 (centres unmarked) [P7C3], the solubility ([3]; water / fish water, 1% DMSO) was “highly insoluble in water”.
